The subject of the test is Beet Armyworm (Spodoptera exigua). Briefly: Bioassay on Beet Armyworm (BAW), 128-well diet tray assay. The format is in vivo. Conditions: percent mortality of second instar larvae, 50 μg/cm^2 on artificial diet, five to seven days, 25° C.; Table 3. As to the method: Certain molecules disclosed in this document were tested against BAW and CEW and CL using procedures described in the following examples. In the reporting of the results, the “BAW & CEW & CL Rating Table” was used (See Table Section).
Bioassays on BAW (Spodoptera exigua)
Bioassays on BAW were conducted using a 128-well diet tray assay. one to five second instar BAW larvae were placed in each well (3 mL) of the diet tray that had been previously filled with 1 mL of artificial diet to which 50 μg/cm^2 of the test compound (dissolved in 50 μL of 90:10 acetone-water mixture) had been applied (to each of eight wells) and then allowed to dry. Trays were covered with a clear self-adhesive cover, and held at 25° C., 14:10 light-dark for five to seven days. Percent mortality was recorded for the larvae in each well; activity in the eight wells was then averaged. The results are indicated in the table entitled “Table 3: Assay Results” (See Table Section).
As for `FC(F)(F)C(/C=C/c1ccc(CNc2ccccn2)c(Cl)c1)c1cc(Cl)c(Cl)c(Cl)c1` (stereo not shown) [CC43, (E)-N-(2-Chloro-4-(4,4,4-trifluoro-3-(3,4,5-trichlorophenyl)but-1-en-1-yl)benzyl)pyridin-2-amine], the “BAW Rating” value is “A (50-100)”.

Consider `COc1cc(/C=C/C(c2cc(Cl)c(F)c(Cl)c2)C(F)(F)F)ccc1C(=O)NC1CSC1` (stereo not shown) [AC71], for which the “BAW Rating” value is “A (50-100)”.

For `O=C(NCc1ccc(/C=C/C(c2cc(Cl)c(Cl)c(Cl)c2)C(F)(F)F)cc1Cl)N1CCOCC1` (stereo not shown) [CC34], the “BAW Rating” value is recorded as “A (50-100)”.

As for `COc1cc(/C=C/C(c2cc(Cl)c(F)c(Cl)c2)C(F)(F)F)ccc1C(=O)NC1CS(=O)(=O)C1` (stereo not shown) [AC85], the “BAW Rating” value is given as “A (50-100)”.

With `N#Cc1cc(/C=C/C(c2cc(Cl)c(Cl)c(Cl)c2)C(F)(F)F)ccc1-n1cnc(NC(=O)C2CC2)n1` (stereo not shown) [DC43, (E)-N-(1-(2-Cyano-4-(4,4,4-trifluoro-3-(3,4,5-trichlorophenyl)but-1-en-1-yl)phenyl)-1H-1,2,4-triazol-3-yl)cyclopropanecarboxamide], the “BAW Rating” value is “A (50-100)”.

Turning to `CNc1cc(/C=C/C(c2cc(Cl)cc(Cl)c2)C(F)(F)F)ccc1-n1cncn1` (stereo not shown) [DC57, (E)-5-(3-(3,5-Dichlorophenyl)-4,4,4-trifluorobut-1-en-1-yl)-N-methyl-2-(1H-1,2,4-triazol-1-yl)aniline], the “BAW Rating” value is reported as “A (50-100)”.

Take `O=C(NCc1ccc(/C=C/C(c2cc(Cl)c(Cl)c(Cl)c2)C(F)(F)F)cc1C(F)(F)F)C1CC1` (stereo not shown) [CC22]: the “BAW Rating” value is listed as “A (50-100)”.

Take `N#Cc1cc(/C=C/C(c2cc(Cl)cc(C(F)(F)F)c2)C(F)(F)F)ccc1-n1cncn1` (stereo not shown) [DC33]: the “BAW Rating” value was “A (50-100)”.

Consider `CCNC(=O)NCc1ccc(/C=C/C(c2cc(Cl)c(Cl)c(Cl)c2)C(F)(F)F)cc1C(F)(F)F` (stereo not shown) [CC32], for which the “BAW Rating” value was “A (50-100)”.

For `N#CCN1CCC(NC(=O)c2ccc(/C=C/C(c3cc(Cl)c(Cl)c(Cl)c3)C(F)(F)F)cc2Br)CC1` (stereo not shown) [AC107], the “BAW Rating” value is “B (More than 0-Less than 50)”.

For `N#Cc1cc(/C=C/C(c2cc(Cl)c(Cl)c(Cl)c2)C(F)(F)F)ccc1-n1cnc([N+](=O)[O-])n1` (stereo not shown) [DC40, (E)-2-(3-Nitro-1H-1,2,4-triazol-1-yl)-5-(4,4,4-trifluoro-3-(3,4,5-trichlorophenyl)but-1-en-1-yl)benzonitrile], the “BAW Rating” value is “A (50-100)”.

As for `O=C(NCc1ccc(Cl)nc1)c1ccc(/C=C/C(c2cc(Cl)c(Cl)c(Cl)c2)C(F)(F)F)cc1C(F)(F)F` (stereo not shown) [AC36], the “BAW Rating” value was “A (50-100)”.

Consider `Fc1c(Cl)cc(C(/C=C/c2ccc3c(c2)CCC3NCCC(F)(F)F)C(F)(F)F)cc1Cl` (stereo not shown) [BC10, (E)-5-(3-(3,5-Dichloro-4-fluorophenyl)-4,4,4-trifluorobut-1-en-1-yl)-N-(3,3,3-trifluoropropyl)-2,3-dihydro-1H-inden-1-amine], for which the “BAW Rating” value is reported as “A (50-100)”.

`O=C(Cc1ccc(Cl)nc1)NCc1ccc(/C=C/C(c2cc(Cl)c(Cl)c(Cl)c2)C(F)(F)F)cc1Cl` (stereo not shown) [CC14]: the “BAW Rating” value is recorded as “A (50-100)”.

For `O=C(CNC(=O)c1ccc(/C=C/C(c2cc(Cl)c(Cl)c(Cl)c2)C(F)(F)F)cc1Br)NCC(F)(F)F` (stereo not shown) [AC66], the “BAW Rating” value was “A (50-100)”.

For the compound `Cc1cc(/C=C/C(c2cc(Cl)cc(Cl)c2)C(F)(F)F)cc(C#N)c1-n1cncn1` (stereo not shown) [DC44], the “BAW Rating” value is “A (50-100)”.

For `CC(=O)N1CCC(NC(=O)c2ccc(/C=C/C(c3cc(Cl)c(Cl)c(Cl)c3)C(F)(F)F)cc2Br)CC1` (stereo not shown) [AC103, (E)-N-(1-Acetylpiperidin-4-yl)-2-bromo-4-(4,4,4-trifluoro-3-(3,4,5-trichlorophenyl)but-1-en-1-yl)benzamide], the “BAW Rating” value is given as “A (50-100)”.

For the compound `Cc1cc(/C=C/C(c2ccc(Cl)c(Cl)c2)C(F)(F)F)ccc1C(=O)NCc1ccc(Cl)nc1` (stereo not shown) [AC37], the “BAW Rating” value was “A (50-100)”.

Take `O=C(NCc1ccc(Cl)nc1)c1ccc(/C=C/C(c2cc(Cl)c(Cl)c(Cl)c2)C(F)(F)F)cc1Br` (stereo not shown) [AC31]: the “BAW Rating” value was “A (50-100)”.

Consider `CN1CCC(NC(=O)c2ccc(/C=C/C(c3cc(Cl)c(Cl)c(Cl)c3)C(F)(F)F)cc2Br)CC1` (stereo not shown) [AC106, (E)-2-Bromo-N-(1-methylpiperidin-4-yl)-4-(4,4,4-trifluoro-3-(3,4,5-trichlorophenyl)but-1-en-1-yl)benzamide], for which the “BAW Rating” value is given as “A (50-100)”.

In the case of `Cc1cc(/C=C/C(c2cc(Cl)c(F)c(Cl)c2)C(F)(F)F)ccc1C(=O)NC1CCOCC1` (stereo not shown) [AC52], the “BAW Rating” value is given as “A (50-100)”.

As to `O=C(NC1CCN(C(=O)CC(F)(F)F)CC1)c1ccc(/C=C/C(c2cc(Cl)c(Cl)c(Cl)c2)C(F)(F)F)cc1Br` (stereo not shown) [AC104, (E)-2-Bromo-4-(4,4,4-trifluoro-3-(3,4,5-trichlorophenyl)but-1-en-1-yl)-N-(1-(3,3,3-trifluoropropanoyl)piperidin-4-yl)benzamide], the “BAW Rating” value was “A (50-100)”.

Turning to `O=C(NCc1ccc(/C=C/C(c2cc(Cl)c(Cl)c(Cl)c2)C(F)(F)F)cc1Cl)C1CC1` (stereo not shown) [CC11], the “BAW Rating” value was “A (50-100)”.

As to `O=C(NC1CS(=O)(=O)C1)c1ccc(/C=C/C(c2cc(Cl)c(Cl)c(Cl)c2)C(F)(F)F)cc1Cl` (stereo not shown) [AC30], the “BAW Rating” value is given as “A (50-100)”.

`O=C(CC(F)(F)F)NCc1ccc(/C=C/C(c2ccc(Cl)c(Cl)c2)C(F)(F)F)cc1Cl` (stereo not shown) [CC18]: the “BAW Rating” value is given as “A (50-100)”.

With `Cc1cc(/C=C/C(c2cc(Cl)cc(Cl)c2)C(F)(F)F)ccc1C(=O)Nc1ccc(Cl)nc1` (stereo not shown) [AC59], the “BAW Rating” value was “A (50-100)”.

With `Fc1ccc(C(/C=C/c2ccc(-n3cncn3)cc2)C(F)(F)F)cc1` (stereo not shown) [DC7], the “BAW Rating” value was “A (50-100)”.

`CSCCC(=O)NCc1ccc(/C=C/C(c2cc(Cl)c(Cl)c(Cl)c2)C(F)(F)F)cc1Cl` (stereo not shown) [CC19]: the “BAW Rating” value is “A (50-100)”.

Take `CCc1cc(/C=C/C(c2cc(Cl)c(F)c(Cl)c2)C(F)(F)F)ccc1C(=O)NCC(=O)NCC(F)(F)F` (stereo not shown) [AC80]: the “BAW Rating” value is reported as “A (50-100)”.

As for `Cc1cc(/C=C/C(c2cc(Cl)c(F)c(Cl)c2)C(F)(F)F)ccc1C(=O)NCc1ccc(Cl)nc1` (stereo not shown) [AC38], the “BAW Rating” value is “A (50-100)”.

As for `O=C(NCc1ccc(Cl)nc1)c1ccc(/C=C/C(c2cc(Cl)cc(Cl)c2)C(F)(F)F)cc1F` (stereo not shown) [AC49], the “BAW Rating” value is reported as “A (50-100)”.

Consider `O=C(NCc1ccc(/C=C/C(c2cc(Cl)cc(Cl)c2)C(F)(F)F)cc1)C1CC1` (stereo not shown) [CC2], for which the “BAW Rating” value is listed as “A (50-100)”.

`Cc1cc(/C=C/C(c2cc(Cl)c(Cl)c(Cl)c2)C(F)(F)F)ccc1C(=O)NCc1ccc(Cl)nc1` (stereo not shown) [AC22]: the “BAW Rating” value is on record as “A (50-100)”.

In the case of `O=C(CNC(=S)c1ccc(/C=C/C(c2cc(Cl)c(Cl)c(Cl)c2)C(F)(F)F)cc1Br)NCC(F)(F)F` (stereo not shown) [AC91, (E)-2-(2-Bromo-4-(4,4,4-trifluoro-3-(3,4,5-trichlorophenyl)but-1-en-1-yl)phenylthioamido)-N-(2,2,2-trifluoroethyl)acetamide], the “BAW Rating” value is recorded as “A (50-100)”.

`O=C(CNC(=O)c1ccc(/C=C/C(c2cc(Cl)cc(Cl)c2)C(F)(F)F)cc1F)NCC(F)(F)F` (stereo not shown) [AC62]: the “BAW Rating” value is “A (50-100)”.

On to `O=C(NCc1ccc(/C=C/C(c2cc(Cl)cc(Cl)c2)C(F)(F)F)cc1C(F)(F)F)C1CC1` (stereo not shown) [CC21], for which the “BAW Rating” value is “A (50-100)”.

Regarding `CC(=O)NCc1ccc(/C=C/C(c2cc(Cl)cc(Cl)c2)C(F)(F)F)cc1Cl` (stereo not shown) [CC7, (E)-N-(2-Chloro-4-(3-(3,5-dichlorophenyl)-4,4,4-trifluorobut-1-en-1-yl)benzyl)acetamide], the “BAW Rating” value is recorded as “A (50-100)”.

For `N#Cc1cc(/C=C/C(c2cc(Cl)cc(Cl)c2)C(F)(F)F)ccc1-n1cnc(N)n1` (stereo not shown) [DC38], the “BAW Rating” value is “A (50-100)”.

Take `O=C(CC(F)(F)F)NCc1ccc(/C=C\C(c2cc(Cl)c(Cl)c(Cl)c2)C(F)(F)F)cc1` (stereo not shown) [CC54, (Z)-3,3,3-Trifluoro-N-(4-(4,4,4-trifluoro-3-(3,4,5-trichlorophenyl)but-1-en-1-yl)benzyl)propanamide]: the “BAW Rating” value was “A (50-100)”.

In the case of `Cc1cc(/C=C/C(c2cc(Cl)cc(Cl)c2)C(F)(F)F)ccc1C(=O)NC(C)(C)c1ccccn1` (stereo not shown) [AC16], the “BAW Rating” value is on record as “A (50-100)”.

Regarding `O=C(CC(F)(F)F)NCc1ccc(/C=C/C(c2cc(Cl)c(Cl)c(Cl)c2)C(F)(F)F)cc1C(F)(F)F` (stereo not shown) [CC24], the “BAW Rating” value is on record as “A (50-100)”.

Take `O=C(NC1CS(=O)(=O)C1)c1ccc(/C=C/C(c2cc(Cl)c(F)c(Cl)c2)C(F)(F)F)cc1F` (stereo not shown) [AC84]: the “BAW Rating” value is recorded as “A (50-100)”.

Take `Cc1cc(/C=C/C(c2cc(Cl)cc(Cl)c2)C(F)(F)F)ccc1C(=O)NCc1ccccn1` (stereo not shown) [AC12]: the “BAW Rating” value is recorded as “A (50-100)”.

Take `O=C(NCc1ccc(/C=C/C(c2cc(Cl)c(F)c(Cl)c2)C(F)(F)F)cc1Cl)C1CC1` (stereo not shown) [CC15]: the “BAW Rating” value is “A (50-100)”.

In the case of `O=C(NC1CSC1)c1ccc(/C=C/C(c2cc(Cl)cc(Cl)c2)C(F)(F)F)cc1F` (stereo not shown) [AC61], the “BAW Rating” value is reported as “A (50-100)”.

Regarding `Cc1cc(/C=C/C(c2cc(Cl)cc(Cl)c2)C(F)(F)F)ccc1C(=O)NCc1nccn1C` (stereo not shown) [AC50], the “BAW Rating” value is “A (50-100)”.

For `FC(F)(F)C(/C=C/c1ccc(-n2cncn2)c(Br)c1)c1cc(Cl)cc(Cl)c1` (stereo not shown) [DC47], the “BAW Rating” value is given as “A (50-100)”.

On to `O=C(Cc1ccc(Cl)nc1)NC1CCc2cc(/C=C/C(c3cc(Cl)c(F)c(Cl)c3)C(F)(F)F)ccc21` (stereo not shown) [BC9], for which the “BAW Rating” value is “A (50-100)”.

Consider `O=C(CC(F)(F)F)NCC(=O)n1ccc2cc(/C=C/C(c3cc(Cl)c(F)c(Cl)c3)C(F)(F)F)ccc21` (stereo not shown) [BC13, (E)-N-(2-(5-(3-(3,5-Dichloro-4-fluorophenyl)-4,4,4-trifluorobut-1-en-1-yl)-1H-indol-1-yl)-2-oxoethyl)-3,3,3-trifluoropropanamide], for which the “BAW Rating” value is listed as “A (50-100)”.

The values are drawn from US9510592B2, “Pesticidal compositions and processes related thereto” (Dow AgroSciences LLC, priority 2012, dated 2016).
